Test system: Control-Sss reference system (specific and nonspecific DNA fragments)
Test: mTAG labeling, biotinylation, capture on streptavidin beads and multiplex real-time PCR of Control-Sss reference system
Settings: 50 ng Control-Sss mixed with 300 ng sonicated human brain genomic DNA; 50 μM Ado-6-amine; 1450 nM enzyme; 37° C. 30 min

SssI (Q142A/N370A): His6-tagged M.SssI C5 DNA methyltransferase (CG target site) double-alanine mutant Q142A/N370A
level of nonspecific probe found: less than 1%
yield of captured specific probe containing two SssI target sites: ~80%
